Measurements taken from ChEMBL document CHEMBL3507680, “University of Dundee, Gates Library screen for HepG2 cell viability”.

test: Human HepG2 cell viability assay in 384 well format; type: toxicity, cell-based; parameters: dose 125 nL, time 70.5 hour; cytotoxicity at 70.5 h: concentration not given beside the values; conditions: HepG2 cells, read-out: Inhibition

| SMILES | cytotoxicity at 70.5 h |
| --- | --- |
| c1cc(-c2n[nH]cc2-c2ccnc(N3CCCC3)n2)ccn1 | -2.36% |
| O=c1[nH][nH]cc1-c1ccnc(NCCCN2CCOCC2)n1 | -1.38% |
| Cc1ncc(-c2ccnc(NC3CC3)n2)c(-c2cccnc2)n1 | 14.2% |
| CC(=O)Nc1nc2c(s1)C(C)(C)Nc1ccccc1S2 | -2.23% |
| COc1ccc2[nH]cc(-c3ccnc(NC4CCCC4)n3)c2c1 | -0.782% |
| N[C@@H]1CCN(Cc2cc(-c3ccccc3OC(F)(F)F)no2)C[C@H]1O | -10.6% |
| Nc1cc(-c2nccnc2N2CCCC2)c2cc[nH]c2n1 | -11.5% |
| COc1ccccc1OCCCc1cncc(C(N)=O)c1 | -14.6% |
| Cc1nonc1C1CCCN1C(=O)CCc1cc2n(n1)CCCNC2 (stereo not given) | -7.72% |
| COc1cc(CN2CCCC2)ccc1Oc1ncccc1C(F)(F)F | 28.7% |
| O=C(CN1CCOCS1(=O)=O)NCc1ccccc1 | 25.7% |
| CC(C)N1CCC(CC(=O)NC(C(=O)O)c2ccc(F)cc2)CC1 (stereo not given) | -10.8% |
| CCc1nnc(N2C[C@@H](CN(C)CCO)[C@@H](CO)C2)s1 | -12.4% |
| CCc1cc(C(=O)N[C@H]2CN(CCS(C)(=O)=O)C[C@@H]2C2CC2)[nH]n1 | -13.2% |
| COc1ccccc1CN1C(=O)O[C@@H]2CN(S(=O)(=O)N(C)C)C[C@@H]21 | -0.664% |
| CCc1nccn1CCCn1ccnc1-c1[nH]cnc1C | 5.17% |
| COc1cccc(N2CCN(C(=O)CO)CC2=O)c1 | -2.57% |
| O=C(O)[C@@H]1CN(C(=O)c2ccc(F)c(F)c2)C[C@H]1c1cccc(F)c1 | -11.2% |
| CCCN1CC2(CCN(c3ncc(F)cn3)CC2)CC1C(=O)O (stereo not given) | -7.12% |
| CC(C)OC(=O)N1CCC(Cc2ccc(C(=O)O)cc2)C1 (stereo not given) | 27.1% |
| C[C@@H]1CN(C2(C(=O)N3CC[C@H](O)C3)Cc3ccccc3C2)C[C@H](C)O1 | -11.9% |
| CC(NC(=O)C1CCCC1)c1nncn1C(C)C (stereo not given) | 9.12% |

| SMILES | cytotoxicity at 70.5 h |
| --- | --- |
| Clc1ccccc1-c1cc(CNc2ncnc3c2CCNCC3)no1 | 12.2% |
| O=C(CC1=CSC2=NCCN12)N1CCCC(CCc2cccc(F)c2)C1 (stereo not given) | -13.5% |
| O=C(c1ccoc1)N1CCn2nc(CN3CCSCC3)cc2C1 | 17.6% |
| CCC(C)Oc1ccc(CNCCNS(C)(=O)=O)cc1Cl (stereo not given) | -0.417% |
| CCO[C@H]1C[C@@H](O)C12CCN(S(=O)(=O)c1ccccc1OC)CC2 | -13.9% |
| CNc1nc(C)c(C(=O)N2CCCCC2CCN2CCOCC2)s1 (stereo not given) | -0.313% |
| COc1ccccc1OC1CN(C(=O)Cc2c(C)nc(N)nc2C)C1 | 1.7% |
| Cc1cc(N2CCN(Cc3ccccc3)CC(O)C2)nc(N)n1 (stereo not given) | -2.11% |
| O=C(CCN1CCCCO1)N1CCC(CO)(CCc2ccccc2)CC1 | -10.2% |
| CO[C@H]1CN(C(=O)c2nc(-c3ccccc3)[nH]c2C)CC[C@H]1N | 25.8% |
| CCn1ncnc1CN1CCc2[nH]cnc2C1Cc1ccccc1 (stereo not given) | -5.67% |
| COCCn1ccnc1C1CCN(Cc2ccccc2C#N)CC1 | -8.7% |
| Cc1ccn(CCNc2ncnc3c2CCN(c2cnccn2)CC3)n1 | 2.31% |
| C[C@@H]1CN(Cc2cc(C3CCCCC3)no2)CC[C@@]1(O)C1CC1 | 6.92% |
| COCC(=O)N1CCc2[nH]nc(-c3ccc4c(c3)OCO4)c2C1 | -3.34% |
| CCn1ncnc1CN1CCc2[nH]cnc2C1CCc1ccccc1 (stereo not given) | -4.41% |
| Cc1oc(-c2cccc(F)c2F)nc1CN(C)CCO | -7.35% |
| CCOCc1nc(-c2ccc(F)cc2Cl)n(C)n1 | -15.1% |
| OC(c1ccccc1)c1cn(C2CCN(Cc3nccs3)CC2)nn1 (stereo not given) | -11.3% |
| Cc1ccc(N2CCCC(c3[nH]ncc3-c3ccccc3)C2)nn1 (stereo not given) | -8.56% |
| COc1ccc(-c2ncccc2C(=O)N2C[C@H]3CC[C@@H]2C3)cn1 | -2.51% |
| CCc1nc(NCC2CCCN(C(=O)C3CC3)C2)c2cnn(C)c2n1 (stereo not given) | -16.2% |

| SMILES | cytotoxicity at 70.5 h |
| --- | --- |
| N#Cc1cccc(N2CCCC(CO)(CCOc3ccccc3)C2)n1 (stereo not given) | 8.55% |
| O=C(CCC1CC1)N1CCC(n2cc(C3(O)CCCC3)nn2)CC1 | 24.3% |
| COCC(=O)N1CC[C@]2(O)CCN(C(=O)CCc3ccsc3)C[C@@H]2C1 | -10.1% |
| CN1CCN(C[C@@H]2CN(Cc3c(Cl)cncc3Cl)C[C@@H]2CO)CC1 | -11.7% |
| OC1(CNCCc2nc3c(s2)CCCC3)CCNC1 (stereo not given) | -2.83% |
| COCCN1CCN(C(=O)c2ccccc2C(C)=O)[C@H]2CS(=O)(=O)C[C@H]21 | -5.79% |
| COCCN1CCC(c2nc3c([nH]2)CC(C)(C)CNC3=O)CC1 | -4.63% |
| COCCN1C(=O)[C@H]2CC[C@@H]1CN(Cc1nnc(-c3ccccc3)o1)C2 | -4.89% |
| Cc1cnc(C)c(-c2cc(O)c3c(c2)CN(c2ncccn2)CCO3)n1 | 48.2% |
| Cc1ccc([C@H]2CN(C(=O)C3CCC3)C[C@@H]2N)o1 | -1.49% |
| COc1ccc2[nH]nc(CN3CCC(C(=O)N4CCCCC4)CC3)c2c1 | -1.62% |
| CC1(C)CC1(C(=O)N1CC(c2cccnc2)C1)c1ccccc1F (stereo not given) | -7.64% |
| O=C(CN1CCCC1c1nc2cc(F)ccc2[nH]1)NCc1ccccn1 (stereo not given) | -3.28% |
| FC(F)(F)C1CN(c2nc(-c3ccccc3)no2)CCO1 (stereo not given) | -14.1% |
| CCOCCNC(=O)c1cc(COc2cncc(Cl)c2)on1 | -0.86% |
| Nc1nc2c(c(N3CCCC(OCc4ccccn4)C3)n1)CCNCC2 (stereo not given) | -6.98% |
| O=C(CN1CC(c2ccccc2)CC1=O)NCc1cc2n(n1)CCNC2 (stereo not given) | -8.02% |
| COCCCN(C(=O)c1ccc(-n2ccnc2)cc1)C1CCN(C)CC1 | 35.1% |
| O=C(CC1=CSC2=NCCCN12)N1CCCCCC1c1ccco1 (stereo not given) | 9.09% |
| CC(C)n1ccnc1C1CCN(C(=O)c2ccccc2N(C)C)CC1 | -2.41% |
| CCOc1ccccc1N1CCN(CC2(O)CCCNC2)CC1 (stereo not given) | -1.19% |
| COc1cc(C(=O)N2CCC3(CC2)Nc2ccccc2NC3=O)ccn1 | 19% |

| SMILES | cytotoxicity at 70.5 h |
| --- | --- |
| c1ccc(Cc2nc(CNC3CCC4(CCNCC4)CC3)no2)cc1 | -4.21% |
| Cc1cccn2c(CNC(C)CCn3cccn3)cnc12 (stereo not given) | 3.49% |
| Cc1nc(CCC(=O)N2Cc3cnc(-c4ccccc4)nc3C2)n[nH]1 | -14.8% |
| Cc1nonc1OCCNC(=O)CCCc1ccc(Cl)cc1 | -5.01% |
| Cc1cccc(=O)n1CCC(=O)N(C)Cc1cccc2ncccc12 | -15.2% |
| Cc1ccc(-c2nc(CNS(=O)(=O)N(C)C)[nH]c2-c2ccccn2)cc1 | -2.34% |
| CCCN1CCC(N2CCN(c3cccc(C)n3)CC2)CC1 | 5.86% |
| O=C(CCC1CCCN(C(=O)CCN2CCCCO2)C1)N1CCCC1 (stereo not given) | -5.73% |
| CCc1nnc(CN(C)Cc2cccc(C(=O)Nc3cnn(C)c3)c2)o1 | 3.92% |
| Fc1ccccc1Cc1noc(CN2CC[C@@H]3CCCC[C@H]3C2)n1 | -4.61% |
| O=C(O)C1(n2ccnc2)CCN(Cc2cc3ccccc3o2)CC1 | -5.42% |
| CN(Cc1n[nH]c2c1CCCC2)C(=O)c1cccc(CCC(C)(C)O)c1 | -4.47% |
| CN1C(=O)CC(C(=O)O)C12CCN(Cc1ccc(F)c(Cl)c1)CC2 (stereo not given) | 0.558% |
| O=C1NCC2(CCCN(C(=O)c3ccc4c(c3)CCO4)C2)O1 (stereo not given) | -4.91% |
| N#Cc1cccc(C(=O)N2CCC3(CCC(=O)N(C4CC4)C3)CC2)c1 | 6.81% |
| CCc1nc(NC2CC(=O)N(CC3CCCCC3)C2)ncc1C (stereo not given) | -8.17% |
| Cc1ccc(N2CC[C@@]3(O)CCN(S(C)(=O)=O)C[C@H]3C2)nn1 | 6.8% |
| Cc1n[nH]c(C)c1-c1c(C#N)c(N)nc2c1CCc1[nH]ccc1-2 | -3.53% |
| CCN1CCC(CC(=O)NCC(O)c2cccc(OC)c2)CC1 (stereo not given) | -6.22% |
| C=C(C)CN1CCC(n2cc(C3CCCC3)nn2)CC1 | -2.5% |
| Cc1cc(C(=O)NCC2CCS(=O)(=O)C2)ccc1NC(=O)c1ccco1 (stereo not given) | 2.82% |
| O=S1(=O)C[C@@H]2[C@H](C1)N(Cc1cc(Cl)cc(Cl)c1)CCN2CCO | -1.4% |

| SMILES | cytotoxicity at 70.5 h |
| --- | --- |
| CCOC(=O)c1coc(N2CCN(C(=O)c3cccc(OC)c3)CC2)n1 | -8.88% |
| COc1cccc(CNC(=O)C(C)n2ccnc2C(C)C)c1OC (stereo not given) | 23.8% |
| CN(Cc1cc2n(n1)CCNC2)Cc1n[nH]c2c1CCCCC2 | -1.36% |
| CN(Cc1csc(-c2ccccc2)n1)Cc1ncccc1C(=O)O | 11.5% |
| COC(=O)CNC(=O)c1cn(Cc2ccccc2F)nn1 | -5.61% |
| COc1ccc(CN2CC[C@@H](N)[C@@H](OC)C2)cc1Cn1cncn1 | -6.47% |
| COc1ccc(NC(=O)CCN2CC=C(c3cnn(C)c3)CC2)c(C)c1 | 2.12% |
| CN(Cc1cc(C(C)(C)C)n[nH]1)C(=O)CCC(=O)NC1CCCC1 | -9.2% |
| CCCN(CCO)C(=O)c1cc(COc2ccc3c(c2)CCCC3)on1 | 11.2% |
| O=C(CCC1CCN(C(=O)c2cc[nH]c2)CC1)NCc1cccc(Cl)c1 | -9.67% |
| CCC(C)N(Cc1ccsc1)C(=O)c1ccc(CO)cc1 (stereo not given) | -0.23% |
| O=C(O)COc1ccc(Cl)cc1CN1CCC2(CCOCC2)CC1 | 2.03% |
| CSCC[C@H](NC(C)=O)C(=O)N(C)Cc1ccc(-n2cccn2)cc1 | 23.9% |
| NCC1CN(C(=O)Cn2ncc(N3CCCCC3)cc2=O)CCO1 (stereo not given) | -2.61% |
| CN(CCCc1nccn1C)C(=O)C1CCN(C(=O)C2CC2)CC1 | 0.477% |
| Cc1cccc(CNCC2(O)CCCN(CC3CCCCC3)C2=O)n1 (stereo not given) | -5.28% |
| CC(=O)c1cccc(-c2c[nH]c(C)n2)c1 | -7.11% |
| Cc1nc(CNC(=O)c2cc(Cn3ccnc3C(C)C)[nH]n2)sc1C | -14.3% |
| CCC(CO)N(Cc1ccccn1)C(=O)c1ccc(C)c(Cl)c1 (stereo not given) | -5.65% |
| COc1cccc2c1OCC(CNc1cc(N)nc(SC)n1)C2 (stereo not given) | -8.3% |
| Cc1cnc(NC(=O)c2cccc(CN(C)Cc3ccno3)c2)s1 | -4.32% |
| CSc1ccc(-c2cc(CN)nc3ccnn23)cc1 | -12.2% |
